The record followed here is publication PMC9687610, “Adenosine-Mimicking Derivatives of 3-Aminopyrazine-2-Carboxamide: Towards Inhibitors of Prolyl-tRNA Synthetase with Antimycobacterial Activity” (Biomolecules, 2022).

The structures appear in SMILES notation. In brackets after ≈: the same amount, converted by molar mass. Read-outs that look alike come from different tables or passages of the source.

Series [1] concerns Mycobacterium tuberculosis H37Ra ITM-M006710 (ATCC 9431). Description: Microplate Alamar Blue Assay (MABA), Mtb H37Ra. The format is cell-based. The conditions noted are these: Mycobacterium tuberculosis, 120 h, pH 6.6, MABA, Middlebrook 7H9 broth pH 6.6, resazurin after 120 h; read-out: Mtb H37Ra MIC.
The test system of series [2] is Mycobacterium smegmatis DSM 43465 (ATCC 607). Kind of series: Microplate Alamar Blue Assay (MABA), M. smegmatis. The format is cell-based. The conditions noted are these: Mycolicibacterium smegmatis, read-out: M. smegmatis MIC. Background: Alamar Blue is a resazurin reagent that responds to reducing activity.
The test system of series [3] is M. aurum DSM 43999 (ATCC 23366). Kind of series: Microplate Alamar Blue Assay (MABA), M. aurum. The format is cell-based. The conditions noted are these: Mycolicibacterium aurum, read-out: M. aurum MIC.
For series [4], the system named is Staphylococcus aureus subsp. aureus CCM 4223 (ATCC 29213). Kind of series: Antibacterial microdilution broth (EUCAST), SA. The format is cell-based. The note with it: Staphylococcus aureus, read-out: SA MIC. On the technique in general: In broth dilution the organism is exposed to a series of concentrations in liquid medium.
Series [5] concerns Staphylococcus aureus subsp. aureus methicillin-resistant (MRSA) CCM 4750 (ATCC 43300). Description: Antibacterial microdilution broth (EUCAST), MRSA. The conditions noted are these: Staphylococcus aureus, read-out: MRSA MIC. The format is cell-based.
Series [6] concerns Staphylococcus epidermidis CCM 4418 (ATCC 12228). Description: Antibacterial microdilution broth (EUCAST), SE. The format is cell-based. The conditions noted are these: read-out: SE MIC.
The test system of series [7] is Enterococcus faecalis CCM 4224 (ATCC 29212). Description: Antibacterial microdilution broth (EUCAST), EF. The format is cell-based. The note with it: Enterococcus faecalis, read-out: EF MIC.
Series [8] concerns Escherichia coli CCM 3954 (ATCC 25922). Description: Antibacterial microdilution broth (EUCAST), EC. The format is cell-based. The note with it: Escherichia coli, read-out: EC MIC.
Series [9] has as its system Acinetobacter baumannii DSM 30007 (ATCC 19606). Kind of series: Antibacterial microdilution broth (EUCAST), ACI. The format is cell-based. The note with it: Acinetobacter baumannii, read-out: ACI MIC.
The test system of series [10] is Pseudomonas aeruginosa CCM 3955 (ATCC 27853). Kind of series: Antibacterial microdilution broth (EUCAST), PA. The format is cell-based. The conditions noted are these: Pseudomonas aeruginosa, read-out: PA MIC.
The subject of series [11] is Candida albicans CCM 8320 (ATCC 24433). Kind of series: Antifungal microdilution broth (EUCAST), CA. The format is cell-based. The conditions noted are these: Candida albicans, read-out: CA MIC.
The subject of series [12] is Candida krusei CCM 8271 (ATCC 6258). Kind of series: Antifungal microdilution broth (EUCAST), CK. The format is cell-based. The conditions noted are these: Pichia kudriavzevii, read-out: CK MIC.
In series [13] the test system is Candida parapsilosis CCM 8260 (ATCC 22019). Kind of series: Antifungal microdilution broth (EUCAST), CP. The format is cell-based. The conditions noted are these: Lodderomyces parapsilosis, read-out: CP MIC.
The test system of series [14] is Candida tropicalis CCM 8264 (ATCC 750). Description: Antifungal microdilution broth (EUCAST), CT. The format is cell-based. The conditions noted are these: Candida tropicalis, read-out: CT MIC.
Series [15] deals with Aspergillus fumigatus ATCC 204305. Description: Antifungal microdilution broth (EUCAST), AF. The format is cell-based. The note with it: Aspergillus fumigatus, read-out: AF MIC.
For series [16], the system named is Aspergillus flavus CCM 8363. Description: Antifungal microdilution broth (EUCAST), AFla. The format is cell-based. The note with it: Aspergillus flavus, read-out: AFla MIC.
Series [17] concerns Lichtheimia corymbifera CCM 8077. Description: Antifungal microdilution broth (EUCAST), LC. The conditions noted are these: Lichtheimia corymbifera, read-out: LC MIC. The format is cell-based.
Series [18] has as its system Trichophyton interdigitale CCM 8377 (ATCC 9533). Description: Antifungal microdilution broth (EUCAST), TI. The format is cell-based. The note with it: Trichophyton interdigitale, 72 h, read-out: TI MIC.
The test system of series [19] is Klebsiella pneumoniae CCM 4415 (ATCC 10031). Description: Antibacterial microdilution broth (EUCAST), KP. The note with it: read after 24 h.

Take `COC(=O)c1nccnc1NC(=O)c1ccc(Br)cc1` [Compound 18e]: the melting point (as a rule, the temperature, or range, at which the solid turns liquid) fell in the range of 195.1 to 197 °C. Also, the minimum inhibitory concentration (MIC) – broadly, the lowest concentration found to suppress growth – in [1] is at least 500 µg/mL. Also, in [2] (MABA, resazurin after 48 h), the MIC is at least 500 µg/mL. Moreover, the MIC in series [3] (MABA, resazurin after 72 h) was at least 500 µg/mL. Also, the MIC in series [4] (read after 24 h) was above 500 µM. Besides, in series [5] (read after 24 h), the minimal inhibitory concentration (MIC) is above 500 µM. In addition, the MIC in series [6] (read after 24 h) was above 500 µM. In addition, the MIC in series [7] (read after 24 h) was above 500 µM. The MIC in series [8] (read after 24 h) is above 500 µM. For the same compound, the MIC in [9] (read after 24 h) was above 500 µM. The MIC in series [10] (read after 24 h) was above 500 µM. Also, in series [11] (read after 24 h), the MIC is above 500 µM. Besides, the minimal inhibitory concentration (MIC) in series [12] (read after 24 h) is above 500 µM. Further, the minimal inhibitory concentration (MIC) in series [13] (read after 24 h) was above 500 µM. The MIC in series [14] (read after 24 h) is above 500 µM. Besides, the MIC in [15] (ATCC204305, read after 24 h) is above 500 µM. Besides, the minimum inhibitory concentration (MIC) in series [16] (CCM8363, read after 24 h) was above 500 µM. In series [17] (CCM8077, read after 24 h), the MIC was above 500 µM. Also, in [18], the minimum inhibitory concentration (MIC) was above 500 µM. Also, the “KP MIC” value in series [19] is recorded as above 500 µM.
`COC(=O)c1nccnc1NC(=O)C12CC3CC(CC(C3)C1)C2` [Compound 28e] yielded a melting point of 225.6 to 227.2 °C. Further, in series [1], the MIC is at least 125 µg/mL. Moreover, in [2] (48 h), the MIC was at least 125 µg/mL. In addition, the minimal inhibitory concentration (MIC) in series [3] (72 h) is at least 125 µg/mL. The MIC in [4] (24 h) was above 125 µM. For the same compound, the MIC in series [5] (24 h) was above 125 µM. Further, the minimal inhibitory concentration (MIC) in series [6] (24 h) was above 125 µM. Moreover, the MIC in series [7] (24 h) is above 125 µM. The minimum inhibitory concentration (MIC) in series [8] (24 h) is above 125 µM. Also, in [9] (24 h), the minimum inhibitory concentration (MIC) was above 125 µM. The minimal inhibitory concentration (MIC) in series [10] (24 h) was above 125 µM. Moreover, the minimum inhibitory concentration (MIC) in series [11] (24 h) is above 125 µM. The MIC in series [12] (24 h) was above 125 µM. For the same compound, the MIC in series [13] (24 h) is above 125 µM. Besides, in series [14] (24 h), the MIC is above 125 µM. For the same compound, the minimal inhibitory concentration (MIC) in [15] (ATCC204305, 24 h) is above 125 µM. For the same compound, the MIC in [16] (CCM8363, 24 h) is above 125 µM. Moreover, the minimal inhibitory concentration (MIC) in [17] (CCM8077, 24 h) was above 125 µM. Besides, the minimal inhibitory concentration (MIC) in [18] was above 125 µM. Moreover, the “KP MIC” value in series [19] is above 125 µM.
Take `COC(=O)c1nccnc1NC(=O)C1CCCCC1` [Compound 27e]: the melting point fell in the range of 106.9 to 108.3 °C. In series [1], the MIC is at least 500 µg/mL. Further, in series [2] (MABA, resazurin after 48 h), the minimal inhibitory concentration (MIC) is 125 µg/mL (≈ 475 µM). For the same compound, the MIC in [3] (MABA, resazurin after 72 h) is at least 500 µg/mL. Further, the MIC in series [4] (read after 24 h) was above 500 µM. In addition, the minimal inhibitory concentration (MIC) in [5] (read after 24 h) is above 500 µM. The minimum inhibitory concentration (MIC) in series [6] (read after 24 h) was above 500 µM. For the same compound, the MIC in [7] (read after 24 h) is above 500 µM. Further, the MIC in series [8] (read after 24 h) was above 500 µM. In addition, in series [9] (read after 24 h), the MIC was above 500 µM. Moreover, the minimum inhibitory concentration (MIC) in [10] (read after 24 h) is above 500 µM. The minimum inhibitory concentration (MIC) in [11] (read after 24 h) is above 500 µM. Besides, in series [12] (read after 24 h), the MIC is above 500 µM. For the same compound, the MIC in series [13] (read after 24 h) is above 500 µM. Further, the MIC in series [14] (read after 24 h) is above 500 µM. Further, the minimum inhibitory concentration (MIC) in series [15] (ATCC204305, read after 24 h) was above 500 µM. Further, the MIC in series [16] (CCM8363, read after 24 h) is above 500 µM. The MIC in [17] (CCM8077, read after 24 h) was above 500 µM. Moreover, the MIC in [18] is above 500 µM. The “KP MIC” value in series [19] is above 500 µM.
As to `COC(=O)c1nccnc1NC(=O)c1ccccc1Br` [Compound 16e], the melting point lay in the range of 168.4 to 169.2 °C. In addition, the minimal inhibitory concentration (MIC) in series [1] was found to be 125 µg/mL (≈ 372 µM). Also, the MIC in [2] (MABA, resazurin after 48 h) was at least 500 µg/mL. For the same compound, in series [3] (MABA, resazurin after 72 h), the MIC is at least 500 µg/mL. Besides, the MIC in series [4] (read after 24 h) is above 500 µM. In addition, in series [5] (read after 24 h), the minimum inhibitory concentration (MIC) is above 500 µM. In [6] (read after 24 h), the minimum inhibitory concentration (MIC) was above 500 µM. Also, in series [7] (read after 24 h), the MIC is above 500 µM. The minimal inhibitory concentration (MIC) in series [8] (read after 24 h) was above 500 µM. Besides, in series [9] (read after 24 h), the MIC is above 500 µM. Also, the MIC in [10] (read after 24 h) was above 500 µM. In addition, the minimum inhibitory concentration (MIC) in series [11] (read after 24 h) is above 500 µM. In series [12] (read after 24 h), the MIC was above 500 µM. Moreover, in series [13] (read after 24 h), the MIC was above 500 µM. Also, the MIC in series [14] (read after 24 h) was above 500 µM. For the same compound, in series [15] (ATCC204305, read after 24 h), the minimum inhibitory concentration (MIC) is above 500 µM. The MIC in series [16] (CCM8363, read after 24 h) is above 500 µM. Besides, the minimal inhibitory concentration (MIC) in [17] (CCM8077, read after 24 h) is above 500 µM. The minimum inhibitory concentration (MIC) in [18] was above 500 µM. Moreover, in [19], the “KP MIC” value is above 500 µM.
